From patent US20040138272A1, “1,4-Substituted cyclohexane derivatives” (priority 2002, published 2004)

Target: glycogen synthatase kinase 3 beta (GSKB) (Homo sapiens, UniProt P49841)
Assay: GSK B kinase activity of compounds (FIG. 10)
Format: biochemical
Details: 10 uM

Chain of glycogen synthatase kinase 3 beta (GSKB) (P49841 whole entry): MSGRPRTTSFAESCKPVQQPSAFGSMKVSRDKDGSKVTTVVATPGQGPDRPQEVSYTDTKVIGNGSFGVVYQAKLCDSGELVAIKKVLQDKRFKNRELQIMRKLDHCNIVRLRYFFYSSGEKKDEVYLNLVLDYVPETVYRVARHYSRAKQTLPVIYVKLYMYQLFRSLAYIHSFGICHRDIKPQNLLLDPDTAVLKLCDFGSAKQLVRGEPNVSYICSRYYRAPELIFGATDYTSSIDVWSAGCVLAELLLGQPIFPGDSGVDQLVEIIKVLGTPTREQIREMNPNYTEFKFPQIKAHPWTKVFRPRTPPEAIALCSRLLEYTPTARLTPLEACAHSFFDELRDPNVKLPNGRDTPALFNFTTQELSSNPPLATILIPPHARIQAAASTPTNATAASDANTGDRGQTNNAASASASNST

| activity towards GSKB (FIG. 10) | Compound |
| --- | --- |
| can exert activity | C=CC[C@@H](NC)[C@H]1CC[C@H](C(=O)Nc2ccncc2)CC1.Cl.Cl (relative stereo) [BA-1028, (R,S)-trans-4-[(N′-methyl)-but-3′-en-1′-amino]-N-(4″-pyridyl)cyclohexane Carboxamide Dihydrochloride] |
| can exert activity | C=CC[C@@H](NCc1ccccc1)[C@H]1CC[C@H](C(=O)Nc2ccncc2)CC1.Cl.Cl (relative stereo) [BA-1029, (R,S)-trans-4-[(N′-benzyl)-but-3′-en-1′-amino]-N-(4″-pyridyl)cyclohexane Carboxamide Dihydrochloride] |
| can exert activity | Cl.Cl.O=C(Nc1ccncc1)[C@H]1CC[C@H](NNCC(c2ccccc2)c2ccccc2)CC1 [BA-1034, trans-4-{N′-[2′,2′-(Diphenyl)ethyl]hydrazino}-N-(4′″-pyridyl)cyclohexane Carboxamide Dihydrochloride] |
| can exert activity | Cl.Cl.O=C(Nc1ccncc1)[C@H]1CC[C@H](NNCc2ccc(OCc3ccccc3)cc2)CC1 [BA-1035, trans-4-{N′-[4′-(Benzyloxy)benzyl]hydrazino}-N-(4′″-pyridyl)cyclohexane Carboxamide Dihydrochloride] |
| can exert activity | Cl.Cl.O=C(Nc1ccncc1)[C@H]1CC[C@H](NNCC2CCCCC2)CC1 [BA-1036, trans-4-{N′-[(Cyclohexyl)methyl]hydrazino}-N-(4′″-pyridyl)cyclohexane Carboxamide Dihydrochloride] |
| can exert activity | Cl.Cl.O=C(Nc1ccncc1)[C@H]1CC[C@H](NNC/C=C/c2ccccc2)CC1 [BA-1038, 1,4-trans-2′,3′-trans-4-{N′-[3′-(Phenyl)prop-2′-enyl]hydrazino}-N-(4′″-pyridyl)cyclohexane Carboxamide Dihydrochloride] |
